Measurements published in patent US20250261636A1, “QUATERNARY AMMONIUM SANITIZING COMPOSITION” (ECOLAB USA INC., priority 2020, published 2025).
Values joined by “and” are separate entries in the source; they are usually repeats but may differ in a detail not shown here. Equal entries are not always repeated.

Tests used:
[1] = test system: Escherichia coli ATCC 11229; experiment: AOAC Method 960.09 Germicidal and Detergent Sanitizing Action of Disinfectants, food contact sanitizing suspension test; format: cell-based
Protocol: (§1) The microbial efficacy of the multipurpose sanitizing composition was evaluated for food contact applications. The purpose of the testing is to determine the efficacy of compositions used for sanitizing food contact surfaces, which in the evaluations were pre-cleaned, non-porous surfaces using AOAC Method 960.09 Germicidal and Detergent Sanitizing Action of Disinfectants. […] The test organisms included Staphylococcus aureus ATCC 6538 and Escherichia coli ATCC 11229.
(§2) The pH was adjusted by use of a polycarboxylic acid (unless otherwise noted, such as the polycarboxylate citrate tested at pH 8). In this screening test pH 9, 8, 7, 5, 4, and 3 were tested. “NT” indicates a condition was “Not Tested.”

[2] = test system: Staphylococcus aureus ATCC 6538; experiment: as above; format: cell-based; conditions: for Average Log Reduction / CFU - Dilution 1E−01 / CFU - Dilution 1E−02 / CFU/mL / Log / Log Reduction: 50 ppm; for Average Log Reduction / CFU - Dilution 1E−01 / CFU - Dilution 1E−02 / CFU/mL / Log: Example 4; for Log Reduction: Example 4, per replicate
Protocol: as §1, §2

[3] = 50 ppm, pH 4, 77° F., Example 4
[4] = 50 ppm, pH 5, 77° F., Example 4
[5] = 50 ppm, pH 6, 77° F., Example 4
[6] = 50 ppm, pH 7, 77° F., Example 3
[7] = 50 ppm, pH 7 as printed (second sample of Table 15), 77° F.
[8] = 50 ppm, pH 7.5-8 (no pH adjustment), 77° F., Example 4
[9] = pH 7.5-8 (no pH adjustment), 77° F.
[10] = 30 ppm, pH 5, 120° F., listed as Stepan Quat

didecyl dimethyl ammonium carbonate/bicarbonate [CarboQuat]
log reduction E. coli (ATCC 11229) ([1]; 20 ppm, pH 5, 120° F.): 5.08 log
log reduction E. coli (ATCC 11229) ([1]; 30 ppm, pH 3, 120° F.): 6.25 log
log reduction E. coli (ATCC 11229) ([1]; 30 ppm, pH 4, 120° F.): 6.88 log
Average Log Reduction ([1]; 30 ppm, pH 5, 104° F.): 5.61 log
CFU - Dilution 1E−01 ([1]; 30 ppm, pH 5, 104° F.): 14 CFU and 28 CFU
CFU - Dilution 1E−02 ([1]; 30 ppm, pH 5, 104° F.): 3 CFU and 6 CFU
Log Reduction ([1]; 30 ppm, pH 5, 104° F., per replicate): 5.76 log and 5.46 log
log reduction E. coli (ATCC 11229) ([1]; 30 ppm, pH 5, citric acid, 120° F.): 6.67 log
log reduction E. coli (ATCC 11229) ([1]; 30 ppm, pH 5, formic acid, 120° F.): 6.67 log
Average Log Reduction ([1]; 30 ppm, pH 7, 104° F.): 3.47 log
CFU - Dilution 1E−01 ([1]; 30 ppm, pH 7, 104° F.): TNTC
CFU - Dilution 1E−02 ([1]; 30 ppm, pH 7, 104° F.): TNTC
CFU/mL ([1]; 30 ppm, pH 7, 104° F.): 3.00E+04 CFU/mL
Log ([1]; 30 ppm, pH 7, 104° F.): 4.48
Log Reduction ([1]; 30 ppm, pH 7, 104° F., per replicate): 3.47 log
Average Log Reduction ([1]; 30 ppm, pH 7, 120° F.): 6.68 log
CFU - Dilution 1E−01 ([1]; 30 ppm, pH 7, 120° F.): 0 CFU
CFU - Dilution 1E−02 ([1]; 30 ppm, pH 7, 120° F.): 0 CFU
CFU/mL ([1]; 30 ppm, pH 7, 120° F.): 1E+01 CFU/mL
Log ([1]; 30 ppm, pH 7, 120° F.): 1.00
Log Reduction ([1]; 30 ppm, pH 7, 120° F., per replicate): 6.68 log
Average Log Reduction ([1]; 30 ppm, pH 8, 120° F.): 3.21 log
CFU - Dilution 1E−01 ([1]; 30 ppm, pH 8, 120° F.): TNTC
CFU - Dilution 1E−02 ([1]; 30 ppm, pH 8, 120° F.): TNTC
CFU/mL ([1]; 30 ppm, pH 8, 120° F.): 3.00E+04 CFU/mL
Log ([1]; 30 ppm, pH 8, 120° F.): 4.48
Log Reduction ([1]; 30 ppm, pH 8, 120° F., per replicate): 3.21 log
log reduction E. coli (ATCC 11229) ([1]; 30 ppm, pH 8, citrate, 120° F.): 3.20 log
Average Log Reduction ([1]; 40 ppm, pH 8, 120° F.): 5.70 log
Log Reduction ([1]; 40 ppm, pH 8, 120° F., per replicate): 5.28 log and 6.12 log
Average Log Reduction [1, 3]: 5.22 log
CFU - Dilution 1E−01 [1, 3]: 44 CFU
CFU - Dilution 1E−02 [1, 3]: 7 CFU and 4 CFU
CFU/mL [1, 3]: 4.6E+02 CFU/mL and 4.4E+02 CFU/mL
Log [1, 3]: 2.67 and 2.64
Log Reduction ([1]; 50 ppm, pH 4, 77° F., Example 4, per replicate): 5.21 log and 5.23 log
log reduction E. coli (ATCC 11229) ([1]; 50 ppm, pH 5, 77° F., Example 3): 6.70 log
Average Log Reduction [1, 4]: 6.87 log
CFU - Dilution 1E−01 [1, 4]: 0 CFU
CFU - Dilution 1E−02 [1, 4]: 0 CFU
CFU/mL [1, 4]: 1.0E+01 CFU/mL
Log [1, 4]: 1.00
Log Reduction ([1]; 50 ppm, pH 5, 77° F., Example 4, per replicate): 6.87 log
log reduction E. coli (ATCC 11229) ([1]; 50 ppm, pH 5, 104° F.): 6.95 log
Average Log Reduction [1, 5]: 4.07 log
CFU - Dilution 1E−01 [1, 5]: TNTC
CFU - Dilution 1E−02 [1, 5]: 84 CFU and 48 CFU
CFU/mL [1, 5]: 8.4E+03 CFU/mL and 4.8E+03 CFU/mL
Log [1, 5]: 3.92 and 3.68
Log Reduction ([1]; 50 ppm, pH 6, 77° F., Example 4, per replicate): 3.95 log and 4.19 log
Average Log Reduction [1, 6]: 3.35 log
CFU - Dilution 1E−01 [1, 6]: TNTC
CFU - Dilution 1E−02 [1, 6]: TNTC
CFU/mL [1, 6]: 3.00E+04 CFU/mL
Log [1, 6]: 4.48
Log Reduction ([1]; 50 ppm, pH 7, 77° F., Example 3, per replicate): 3.35 log
log reduction E. coli (ATCC 11229) ([1]; 50 ppm, pH 7, 104° F.): 6.71 log
Average Log Reduction [1, 7]: 6.70 log
CFU - Dilution 1E−01 [1, 7]: 2 CFU and 1 CFU
CFU - Dilution 1E−02 [1, 7]: 0 CFU
CFU/mL [1, 7]: 2E+01 CFU/mL and 1E+01 CFU/mL
Log [1, 7]: 1.26 and 1.00
Log Reduction ([1]; 50 ppm, pH 7 as printed (second sample of Table 15), 77° F., per replicate): 6.57 log and 6.83 log
Average Log Reduction [1, 8]: 3.40 log
CFU - Dilution 1E−01 [1, 8]: TNTC
CFU - Dilution 1E−02 [1, 8]: TNTC
CFU/mL [1, 8]: 3.0E+04 CFU/mL
Log [1, 8]: 4.48
Log Reduction ([1]; 50 ppm, pH 7.5-8 (no pH adjustment), 77° F., Example 4, per replicate): 3.40 log
log reduction E. coli (ATCC 11229) ([1]; 50 ppm, pH 9, 77° F., Example 3): 3.35 log
log reduction E. coli (ATCC 11229) ([1]; 50 ppm, pH 9, 104° F.): 5.33 log
log reduction E. coli (ATCC 11229) ([1]; 75 ppm, pH 5, 77° F., Example 3): 6.83 log
log reduction E. coli (ATCC 11229) ([1]; 75 ppm, pH 5, 104° F.): 6.95 log
log reduction E. coli (ATCC 11229) ([1]; 75 ppm, pH 7, 77° F., Example 3): 6.83 log
log reduction E. coli (ATCC 11229) ([1]; 75 ppm, pH 7, 104° F.): 6.95 log
log reduction E. coli (ATCC 11229) ([1]; 75 ppm, pH 9, 77° F., Example 3): 6.50 log
log reduction E. coli (ATCC 11229) ([1]; 75 ppm, pH 9, 104° F.): 6.95 log
log reduction E. coli (ATCC 11229) ([1]; 100 ppm, pH 5, 77° F., Example 3): 6.83 log
log reduction E. coli (ATCC 11229) ([1]; 100 ppm, pH 9, 77° F., Example 3): 6.83 log
log reduction S. aureus (ATCC 6538) ([2]; 20 ppm, pH 5, 120° F.): 6.88 log
log reduction S. aureus (ATCC 6538) ([2]; 30 ppm, pH 5, 120° F.): 6.69 log and 6.88 log
log reduction S. aureus (ATCC 6538) ([2]; 30 ppm, pH 8, 120° F.): 6.69 log
log reduction S. aureus (ATCC 6538) ([2]; 40 ppm, pH 8, 120° F.): 6.69 log
Average Log Reduction ([2]; pH 4, 77° F.): 6.89 log
CFU - Dilution 1E−01 ([2]; pH 4, 77° F.): 0 CFU
CFU - Dilution 1E−02 ([2]; pH 4, 77° F.): 0 CFU
CFU/mL ([2]; pH 4, 77° F.): 1.0E+01 CFU/mL
Log ([2]; pH 4, 77° F.): 1.00
Log Reduction ([2]; pH 4, 77° F.): 6.89 log
Average Log Reduction ([2]; pH 5, 77° F.): 6.89 log
CFU - Dilution 1E−01 ([2]; pH 5, 77° F.): 0 CFU
CFU - Dilution 1E−02 ([2]; pH 5, 77° F.): 0 CFU
CFU/mL ([2]; pH 5, 77° F.): 1.0E+01 CFU/mL
Log ([2]; pH 5, 77° F.): 1.00
Log Reduction ([2]; pH 5, 77° F.): 6.89 log
Average Log Reduction ([2]; pH 6, 77° F.): 6.89 log
CFU - Dilution 1E−01 ([2]; pH 6, 77° F.): 0 CFU
CFU/mL ([2]; pH 6, 77° F.): 1.0E+01 CFU/mL
Log ([2]; pH 6, 77° F.): 1.00
Log Reduction ([2]; pH 6, 77° F.): 6.89 log
Average Log Reduction [2, 9]: 6.89 log
CFU - Dilution 1E−01 [2, 9]: 0 CFU
CFU - Dilution 1E−02 [2, 9]: 0 CFU
CFU/mL [2, 9]: 1.0E+01 CFU/mL
Log [2, 9]: 1.00
Log Reduction [2, 9]: 6.89 log

didecyl dimethyl ammonium methyl sulfonate/sulfate [Quat]
Average Log Reduction ([1]; 30 ppm, pH 5, 120° F.): 4.93 log
Log Reduction ([1]; 30 ppm, pH 5, 120° F., per replicate, listed as Stepan Quat): 4.85 log and 5.02 log
CFU - Dilution 1E−01 [1, 10]: 63 CFU and 46 CFU
CFU/mL [1, 10]: 6.8E+02 CFU/mL and 4.6E+02 CFU/mL
Log [1, 10]: 2.83 and 2.67
log reduction S. aureus (ATCC 6538) ([2]; 30 ppm, pH 5, 120° F.): 6.69 log
